Calls of active or inactive are those of the source. No cut-off for these calls is given here.
Tests used:
[1] = target: T1, G-protein coupled receptor 55 (Homo sapiens, UniProt Q9Y2T6); test: Antagonist activity at beta-galactosidase fused human GPR55 expressed in CHO cells assessed as inhibition of LPI-induced receptor activation by measuring beta-arrestin 2 recruitment at upto 10 uM incubated for 90 mins by PathHunter chemiluminescence based assay; format: cell-based
[2] = target: T1, G-protein coupled receptor 55; test: Antagonist activity at human GPR55 expressed in human U2OS cells assessed as inhibition of LPI-induced receptor activation by measuring beta-arrestin 2 recruitment preincubated for 30 mins followed by LPI addition and measured after 75 mins by microplate reader analysis; format: cell-based
Cannabinoid receptor 1 = Cannabinoid receptor 1 (Homo sapiens, UniProt P21554); test: Displacement of [3H]CP55940 from human CB1 receptor expressed in HEK293 cell membranes assessed as inhibition constant incubated for 90 mins by liquid scintillation spectrometry analysis; set-up: species or system Membrane
Cannabinoid receptor 2 = Cannabinoid receptor 2 (Homo sapiens, UniProt P34972); test: Displacement of [3H]CP55940 from human CB2 receptor expressed in HEK293 cell membranes assessed as inhibition constant incubated for 90 mins by liquid scintillation spectrometry analysis; set-up: species or system Membrane
[3] = target: T1, G-protein coupled receptor 55; test: Antagonist activity at beta-galactosidase fused human GPR55 expressed in CHO cells assessed as inhibition of LPI-induced receptor activation by measuring beta-arrestin 2 recruitment incubated for 90 mins by PathHunter chemiluminescence based assay; format: cell-based
[4] = target: T1, G-protein coupled receptor 55; test: Inverse agonist activity at human GPR55 expressed in HEK293 cells coexpressing serum response element assessed as reduction in MAPK/ERK signalling pathway by measuring SRE response incubated for 5 hrs in serum-free medium by luciferin based bioluminescence analysis; format: cell-based
[5] = target: T1, G-protein coupled receptor 55; test: Antagonist activity at human GPR55 expressed in HEK293 cells coexpressing serum response element assessed as inhibition of LPI-induced MAPK/ERK signalling pathway by measuring SRE response incubated for 5 hrs in serum-free medium by luciferin based bioluminescence analysis; format: cell-based
CHO = test: Cytotoxicity against CHO cells assessed as reduction in cell viability at upto 10 uM incubated for 24 hrs by XTT assay; format: toxicity, cell-based, Cricetulus griseus; settings: chinese hamster

Cannabinoid receptor 2, sequence (P34972 whole entry, the tested form may be a part): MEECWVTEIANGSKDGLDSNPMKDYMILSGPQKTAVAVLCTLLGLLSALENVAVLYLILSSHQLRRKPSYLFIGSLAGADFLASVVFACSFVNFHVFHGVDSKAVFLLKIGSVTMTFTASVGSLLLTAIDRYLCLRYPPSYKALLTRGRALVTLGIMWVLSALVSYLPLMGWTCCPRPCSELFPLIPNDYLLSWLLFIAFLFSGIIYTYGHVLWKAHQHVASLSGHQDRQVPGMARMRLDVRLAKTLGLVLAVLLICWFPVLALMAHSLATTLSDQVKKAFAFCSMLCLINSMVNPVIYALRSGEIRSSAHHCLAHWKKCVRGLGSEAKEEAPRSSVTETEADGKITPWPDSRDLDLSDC
T1 sequence (Q9Y2T6 whole entry, the tested form may be a part): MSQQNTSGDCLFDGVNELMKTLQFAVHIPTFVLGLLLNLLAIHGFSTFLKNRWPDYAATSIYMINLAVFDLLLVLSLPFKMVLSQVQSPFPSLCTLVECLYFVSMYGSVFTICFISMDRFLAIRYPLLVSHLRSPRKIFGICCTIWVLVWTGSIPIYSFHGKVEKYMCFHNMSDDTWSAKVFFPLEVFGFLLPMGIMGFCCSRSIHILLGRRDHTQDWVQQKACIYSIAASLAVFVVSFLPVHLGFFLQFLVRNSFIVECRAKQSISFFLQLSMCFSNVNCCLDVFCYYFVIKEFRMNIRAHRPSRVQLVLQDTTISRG
Cannabinoid receptor 1, sequence (P21554 whole entry): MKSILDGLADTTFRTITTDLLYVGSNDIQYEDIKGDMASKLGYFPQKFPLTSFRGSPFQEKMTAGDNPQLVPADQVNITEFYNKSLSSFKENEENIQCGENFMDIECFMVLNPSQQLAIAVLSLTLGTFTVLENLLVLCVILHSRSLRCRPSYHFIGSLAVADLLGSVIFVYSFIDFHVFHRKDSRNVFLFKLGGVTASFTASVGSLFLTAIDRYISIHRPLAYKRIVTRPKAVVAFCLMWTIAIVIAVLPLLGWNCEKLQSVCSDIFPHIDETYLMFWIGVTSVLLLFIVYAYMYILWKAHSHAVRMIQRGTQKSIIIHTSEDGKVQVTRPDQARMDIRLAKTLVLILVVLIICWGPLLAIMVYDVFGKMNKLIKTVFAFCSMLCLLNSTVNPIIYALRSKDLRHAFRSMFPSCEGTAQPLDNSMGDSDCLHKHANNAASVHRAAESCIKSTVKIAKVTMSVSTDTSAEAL

SMILES | inhibition [1] | Ki (Cannabinoid receptor 1) [µM] | Ki (Cannabinoid receptor 2) [µM] | further results
Cn1ncc2ncnc(N3CCN(C(=O)c4ccco4)CC3)c21 | inactive | – | – | –
Cc1nc(N2CCN(C(=O)c3ccco3)CC2)c2c3c(sc2n1)CC(C)CC3 (stereo not drawn) | – | – | – | IC50 [2]: 0.43 µM
Cc1c(N2CCN(C(=O)c3ccco3)CC2)nc(C)n(C)c1=O | inactive | – | – | –
O=C(c1ccco1)N1CCN(c2nc(C3CC3)nc3sc4c(c23)CCCC4)CC1 | – | – | – | IC50 [2]: 0.86 µM
Cc1nc(N2CCCN(C(=O)c3ccco3)CC2)c2c3c(sc2n1)CC(C)(C)CC3 | – | > 4 | > 4 | –
COCCc1nc(N2CCN(C(=O)c3ccco3)CC2)c2c3c(sc2n1)CC(C)(C)CC3 | inactive | > 4 | > 4 | –
CC1(C)CCc2c(sc3nc(CO)nc(N4CCN(C(=O)c5ccco5)CC4)c23)C1 | – | > 4 | > 4 | –
Cc1nc(N2CCN(C(=O)c3ccco3)CC2)c2c3c(sc2n1)CC(C)(C)CC3 | – | > 4 | > 4 | IC50 [3]: 0.28 µM; EC50 [4]: 0.9 µM; IC50 [5]: 1.5 µM; Activity (CHO): Non-Toxic
CC1(C)CCc2c(sc3nc(CN4CCOCC4)nc(N4CCN(C(=O)c5ccco5)CC4)c23)C1 | inactive | – | – | –
Cc1cc(C)c2nc(-c3ccccn3)cc(C(=O)N3CCN(C(=O)c4ccco4)CC3)c2c1 | inactive | – | – | –
Cc1nc(N2CCN(C(=O)c3ccco3)CC2)c2c(n1)sc1ccccc12 | – | > 4 | > 4 | –
Cc1nc(N2CCN(C(=O)c3ccco3)CC2)c2c3c(sc2n1)CCCC3 | – | – | – | IC50 [3]: 2.02 µM; IC50 [5]: 7.5 µM
O=C(c1ccco1)N1CCN(c2ncnn3cccc23)CC1 | inactive | – | – | –
O=C(c1ccco1)N1CCN(c2nc(CCl)nc3sc4c(c23)CCCC4)CC1 | – | > 4 | > 4 | –
Cc1cc(C)c2nc(-c3ccccn3)cc(C(=O)O)c2c1 | – | > 4 | > 4 | –
Cc1ccc2c(c1)sc1nc(C)nc(N3CCN(C(=O)c4ccco4)CC3)c12 | – | > 4 | > 4 | –
Cc1c(Cl)nc(C)n(C)c1=O | – | > 4 | > 4 | –
COCc1nc(N2CCN(C(=O)c3ccco3)CC2)c2c3c(sc2n1)CC(C)(C)CC3 | inactive | > 4 | > 4 | –
Cc1nc(Nc2ccc(S(=O)(=O)Nc3onc(C)c3C)cc2)c2c3c(sc2n1)CC(C)(C)CC3 | – | – | – | IC50 [3]: 3.35 µM
CC1(C)CCc2c(sc3nc(CCN4CCOCC4)nc(N4CCN(C(=O)c5ccco5)CC4)c23)C1 | inactive | > 4 | > 4 | –
Cc1nc(N2CCCN(C(=O)c3ccco3)CC2)c2c3c(sc2n1)CCCC3 | – | > 4 | > 4 | –
O=c1cnc(Cl)c[nH]1 | – | > 4 | > 4 | –
O=C(c1ccco1)N1CCN(c2ncnc3sc(-c4ccccc4)cc23)CC1 | inactive | – | – | –
O=C(c1ccco1)N1CCN(c2ncnc3sc4c(c23)CCCC4)CC1 | – | > 4 | > 4 | IC50 [3]: 0.68 µM
Cc1nc(O)c(C)c(N2CCN(C(=O)c3ccco3)CC2)n1 | inactive | – | – | –
Cc1nc(O)c(C)c(Cl)n1 | – | > 4 | > 4 | –
O=C(c1ccco1)N1CCN(c2c[nH]c(=O)cn2)CC1 | inactive | – | – | –
CC1(C)CCc2c(sc3nc(CCO)nc(N4CCN(C(=O)c5ccco5)CC4)c23)C1 | – | – | – | IC50 [3]: 11.7 µM
Cc1nc(Nc2ccc(S(=O)(=O)Nc3onc(C)c3C)cc2)c2c3c(sc2n1)CCCC3 | – | – | – | IC50 [3]: 29.3 µM

Reference: ChEMBL document CHEMBL5223166, “Thienopyrimidine Derivatives as GPR55 Receptor Antagonists: Insight into Structure-Activity Relationship” (ACS Med Chem Lett, 2023)
